target: Pol theta (1-899) (Homo sapiens (Human), UniProt O75417); assay: Pol theta ATPase activity, NADH oxidation-coupled enzymatic assay; assay type: biochemical; conditions: Pol theta (1-899) 10 nM, ATP, dT50 ssDNA, absorbance 340 nm, 10-point dilution series; read-out: ATPase NADH coupling:Standard Screening:hPolQ IC50
Protocol: The ability of the compounds of Formula (I) to inhibit ATPase activity of Pol theta (1-899) was determined using the assay described below.
Pol Theta ATPase activity was determined by measuring the rate of ATP turn over in a NADH oxidation-coupled enzymatic assay. 10-point dilution series of compounds were used in a 384 well format for the inhibition assays. Pol theta (1-899) (10 nM) in assay buffer (20 mM Tris HCl (pH 7.80), 80 mM KCl, 10 mM MgCl2, 1 mM DTT, 0.01% BSA, 0.01% Tween, 5% glycerol) was transferred to the test wells (20 μL), except the low control wells (20 μL of assay buffer was added to the low control wells). The plate was then incubated at room temperature for 15 min. An equal volume (20 μL) of 100 μM ATP, 300 nM dT50 (single-stranded DNA (ssDNA) containing 50 thymine bases), 300 μM NADH, 6 mM PEP, 10 U/mL lactate dehydrogenase and 20 U/mL pyruvate kinase in assay buffer was added to all the test wells. The plate was then centrifuged at 1000 rpm for 1 min. The reaction was monitored for 30 min by measuring absorbance (λ=340 nm) in a Tecan Spark multimode plate reader every minute. The high control (DMSO with enzyme) with low absorbance intensity represents no inhibition of ATPase reaction while the low control (DMSO with buffer) with high absorbance intensity represents full inhibition of ATPase activity. Slope of the reaction progress curves were used to calculate the rate of ATP hydrolysis. The rates were used to determine the percent inhibition using a four-parameter inhibition model to generate IC50, Hill slope and max inhibition.

Sequence of Pol theta (1-899) (O75417 1-899): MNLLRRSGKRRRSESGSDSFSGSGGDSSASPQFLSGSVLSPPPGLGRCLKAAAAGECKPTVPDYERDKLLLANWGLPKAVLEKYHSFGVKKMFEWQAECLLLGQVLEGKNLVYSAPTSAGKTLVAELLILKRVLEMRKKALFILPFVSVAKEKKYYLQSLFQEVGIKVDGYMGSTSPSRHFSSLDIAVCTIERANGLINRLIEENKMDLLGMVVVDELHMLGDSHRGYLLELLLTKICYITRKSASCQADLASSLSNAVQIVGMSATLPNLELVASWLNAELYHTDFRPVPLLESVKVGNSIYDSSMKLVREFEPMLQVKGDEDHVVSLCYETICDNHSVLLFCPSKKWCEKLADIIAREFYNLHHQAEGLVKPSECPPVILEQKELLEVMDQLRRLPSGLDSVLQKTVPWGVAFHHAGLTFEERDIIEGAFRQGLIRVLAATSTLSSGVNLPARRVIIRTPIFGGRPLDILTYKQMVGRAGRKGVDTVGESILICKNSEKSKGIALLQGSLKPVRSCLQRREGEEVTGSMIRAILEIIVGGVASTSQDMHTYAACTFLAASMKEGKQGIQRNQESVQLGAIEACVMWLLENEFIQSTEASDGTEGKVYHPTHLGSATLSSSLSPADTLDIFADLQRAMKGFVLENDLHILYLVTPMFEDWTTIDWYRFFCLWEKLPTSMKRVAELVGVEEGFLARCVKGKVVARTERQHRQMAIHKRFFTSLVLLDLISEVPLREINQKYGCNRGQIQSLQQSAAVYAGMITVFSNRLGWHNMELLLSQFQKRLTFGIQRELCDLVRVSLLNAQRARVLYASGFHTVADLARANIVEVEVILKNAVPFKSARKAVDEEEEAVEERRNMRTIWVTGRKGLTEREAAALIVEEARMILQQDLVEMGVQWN

Compound | IC50 [nM]
O=C(Nc1nnc(OCc2ccc(Cl)cc2)s1)c1ccncc1[C@@]12CCOC[C@@H]1C2 (mixture of isomers) [Example 175, 3-((1R,6S)-3-oxabicyclo[4.1.0]heptan-6-yl)-N-(5-((4-chlorobenzyl)oxy)-1,3,4-thiadiazol-2-yl)isonicotinamide and 3-((1S,6R)-3-oxabicyclo[4.1.0]heptan-6-yl)-N-(5-((4-chlorobenzyl)oxy)-1,3,4-thiadiazol-2-yl)isonicotinamide] | ≤ 200
CC1COCCN1c1ncccc1C(=O)Nc1nnc(OCc2ccc(Cl)cc2)s1 (racemic) [Example 5, (R) N-(5-((4-chlorobenzyl)oxy)-1,3,4-thiadiazol-2-yl)-2-(3-methylmorpholino)-nicotinamide and (S)—N-(5-((4-chlorobenzyl)oxy)-1,3,4-thiadiazol-2-yl)-2-(3-methylmorpholino)nicotinamide] | 200 to 500
CC1CN(c2ncccc2C(=O)Nc2nnc(OCc3ccc(Cl)cc3)s2)CCO1 (racemic) [Example 7, (R)—N-(5-((4-chlorobenzyl)oxy)-1,3,4-thiadiazol-2-yl)-2-(2-methylmorpholino)nicotinamide and (S)—N-(5-((4-chlorobenzyl)oxy)-1,3,4-thiadiazol-2-yl)-2-(2-methylmorpholino)nicotinamide] | 200 to 500
CC1CN(c2ncccc2C(=O)Nc2nnc(OCc3ccc(Cl)cc3)s2)CC(=O)N1 (racemic) [Example 46, (R) N-(5-((4-chlorobenzyl)oxy)-1,3,4-thiadiazol-2-yl)-2-(3-methyl-5-oxopiperazin-1-yl)nicotinamide and (S) N-(5-((4-chlorobenzyl)oxy)-1,3,4-thiadiazol-2-yl)-2-(3-methyl-5-oxopiperazin-1-yl)nicotinamide] | 200 to 500
CC1C(=O)NCCN1c1ncccc1C(=O)Nc1nnc(OCc2ccc(Cl)cc2)s1 (racemic) [Example 52, (R) N-(5-((4-chlorobenzyl)oxy)-1,3,4-thiadiazol-2-yl)-2-(2-methyl-3-oxopiperazin-1-yl)nicotinamide and (S) N-(5-((4-chlorobenzyl)oxy)-1,3,4-thiadiazol-2-yl)-2-(2-methyl-3-oxopiperazin-1-yl)nicotinamide] | 200 to 500
O=C(Nc1nnc(OCc2ccc(Cl)cc2)s1)c1cccnc1N1CCN2C(=O)CCC2C1 (racemic) [Example 57, (R) N-(5-((4-chlorobenzyl)oxy)-1,3,4-thiadiazol-2-yl)-2-(6-oxohexahydropyrrolo[1,2-a]pyrazin-2(1H)-yl)nicotinamide and (S) N-(5-((4-chlorobenzyl)oxy)-1,3,4-thiadiazol-2-yl)-2-(6-oxohexahydropyrrolo[1,2-a]pyrazin-2(1H)-yl)nicotinamide] | 500 to 1000
CC1CNC(=O)CN1c1ncccc1C(=O)Nc1nnc(OCc2ccc(Cl)cc2)s1 (racemic) [Example 60, (R) N-(5-((4-chlorobenzyl)oxy)-1,3,4-thiadiazol-2-yl)-2-(2-methyl-5-oxopiperazin-1-yl)nicotinamide and (S) N-(5-((4-chlorobenzyl)oxy)-1,3,4-thiadiazol-2-yl)-2-(2-methyl-5-oxopiperazin-1-yl)nicotinamide] | ≤ 200
COc1ccccc1-c1cc([C@@H](C)O)ncc1C(=O)Nc1nnc(OCc2ccc(Cl)cc2)s1 (racemic) [Example 167, N-[5-[(4-chlorophenyl)methoxy]-1,3,4-thiadiazol-2-yl]-6-(1-hydroxyethyl)-4-(2-methoxyphenyl)pyridine-3-carboxamide] | 200 to 500
C[C@@H]1C(=O)NCCN1c1cnccc1C(=O)Nc1nnc(OCc2ccc(Cl)cn2)s1 (racemic) [Example 179, (S)—N-(5-((5-chloropyridin-2-yl)methoxy)-1,3,4-thiadiazol-2-yl)-3-(2-methyl-3-oxopiperazin-1-yl)isonicotinamide and (R)—N-(5-((5-chloropyridin-2-yl)methoxy)-1,3,4-thiadiazol-2-yl)-3-(2-methyl-3-oxopiperazin-1-yl)isonicotinamide] | ≤ 200
O=C(Nc1nnc(OCc2ccc(Cl)cc2)s1)c1cccnc1N1CCN2C(=O)CC[C@H]2C1 (single isomer, unassigned) [Example 69, (R)—N-(5-((4-chlorobenzyl)oxy)-1,3,4-thiadiazol-2-yl)-2-(6-oxohexahydropyrrolo[1,2-a]pyrazin-2(1H)-yl)nicotinamide or (S)—N-(5-((4-chlorobenzyl)oxy)-1,3,4-thiadiazol-2-yl)-2-(6-oxohexahydropyrrolo[1,2-a]pyrazin-2(1H)-yl)nicotinamide] | 1000 to 10000
O=C(Nc1nnc(OCc2ccc(Cl)cc2)s1)c1cccnc1N1CCN2C(=O)CC[C@@H]2C1 (single isomer, unassigned) [Example 70, (R)—N-(5-((4-chlorobenzyl)oxy)-1,3,4-thiadiazol-2-yl)-2-(6-oxohexahydropyrrolo-[1,2-a]pyrazin-2(1H)-yl)nicotinamide or (S)—N-(5-((4-chlorobenzyl)oxy)-1,3,4-thiadiazol-2-yl)-2-(6-oxohexahydropyrrolo[1,2-a]pyrazin-2(1H)-yl)nicotinamide] | 500 to 1000
O=C(Nc1nnc(OCc2ccc(F)cc2)s1)c1cccnc1N1CCOCC1 [Example 1, N-(5-((4-fluorobenzyl)oxy)-1,3,4-thiadiazol-2-yl)-2-morpholinonicotinamide] | 1000 to 10000
O=C(Nc1nnc(OCc2ccc(Cl)cc2)s1)c1cccnc1N1CCOCC1 [Example 2, N-(5-((4-chlorobenzyl)oxy)-1,3,4-thiadiazol-2-yl)-2-morpholinonicotinamide] | 500 to 1000
O=C(Nc1nnc(OCc2ccc(Cl)cn2)s1)c1cccnc1N1CCOCC1 [Example 3] | 1000 to 10000
O=C(Nc1nnc(OCc2ccc(Cl)cc2)s1)c1cncn1-c1ccccc1 [Example 4, N-(5-((4-chlorobenzyl)oxy)-1,3,4-thiadiazol-2-yl)-1-phenyl-1H-imidazole-5-carboxamide] | 500 to 1000
O=C(Nc1nnc(OCc2ccc(Cl)cc2)s1)c1cccnc1N1CCCOCC1 [Example 6, N-(5-((4-chlorobenzyl)oxy)-1,3,4-thiadiazol-2-yl)-2-(1,4-oxazepan-4-yl)nicotinamide] | 200 to 500
O=C(Nc1nnc(OCc2ccc(Cl)nc2)s1)c1cccnc1N1CCOCC1 [Example 8, N-(5-((6-chloropyridin-3-yl)methoxy)-1,3,4-thiadiazol-2-yl)-2-morpholinonicotinamide] | 1000 to 10000
C[C@@H]1COCCN1c1ncccc1C(=O)Nc1nnc(OCc2ccc(Cl)cc2)s1 [Example 9, (R)—N-(5-((4-chlorobenzyl)oxy)-1,3,4-thiadiazol-2-yl)-2-(3-methylmorpholino)nicotinamide] | 200 to 500
C[C@H]1COCCN1c1ncccc1C(=O)Nc1nnc(OCc2ccc(Cl)cc2)s1 [Example 10, (S)—N-(5-((4-chlorobenzyl)oxy)-1,3,4-thiadiazol-2-yl)-2-(3-methyl-morpholino)nicotinamide] | 500 to 1000
O=C(Nc1nnc(OCc2ccc(Cl)cc2)s1)c1cccnc1-n1cnnn1 [Example 11, N-(5-((4-chlorobenzyl)oxy)-1,3,4-thiadiazol-2-yl)-2-(1H-tetrazol-1-yl)nicotinamide] | 1000 to 10000
COc1ccc(-n2cncc2C(=O)Nc2nnc(OCc3ccc(Cl)cc3)s2)cc1 [Example 12, N-(5-((4-chlorobenzyl)oxy)-1,3,4-thiadiazol-2-yl)-1-(4-methoxyphenyl)-1H-imidazole-5-carboxamide] | 200 to 500
